Results published in patent US20260207564A1, “DOSAGE REGIME OF ORFORGLIPRON FOR TREATING A SUBJECT WITH TYPE 2 DIABETES (T2D), OBESITY, OR OVERWEIGHT WITH AT LEAST ONE WEIGHT RELATED COMORBIDITY” (Eli Lilly and Company, priority 2022, published 2026).
Read-outs that look alike come from different tables or passages of the source.

Legend:
[1] = Phase 1 food effect study A, single 3 mg dose, healthy adults (Example 6); format: in vivo, human; settings: for AUC(0-inf) / Cmax / half-life: human, in vivo, oral, 3 mg; for AUC(0-inf): read-out: AUC(0-∞), geometric LS mean (geometric CV %); for Cmax: read-out: Cmax, geometric LS mean (geometric CV %); for half-life: read-out: T1/2, geometric mean (range) (converted)
[2] = format: in vivo, human; settings: for percentage of patients who attained an HbA1c of 7% or less: 26 weeks
Protocol: Two Phase 2 studies have evaluated the safety and efficacy of Compound 1a for the treatment of T2D and another for treatment of obesity or overweight with at least one weight related comorbidity.
The 36 and 45 mg cohorts were subdivided in a 36 mg-1 and 36 mg-2 as well as 45 mg-1 and 45 mg-2 respectively, as different starting doses, dose escalations and dose escalation steps were investigated in these subgroup cohorts (FIG. 4).
Eligible male or female participants were >18 years of age with T2D with a HbA1c 7.0% to 10.5% and a body mass index (BMI) of ≥23 kg/m2, treated with diet and exercise alone or with a stable dose of metformin and with a stable body weight (≤5% body weight gain and/or loss) for at least 3 months prior to screening/Visit 1.
The study period included a 2-week screening/lead in period and a 26-week treatment period. During the treatment period, doses were escalated for all treatment groups. The dose escalation period ranged from 4 to 12 weeks depending on dose group. The initial dose was 2 or 3 mg followed by additional escalation steps depending on assigned cohort (FIG. 4). […] All participants were provided healthy eating and exercise education by study personnel throughout the trial.
Key Safety and tolerability endpoints included the frequency of patient- and investigator-reported adverse events, rate and incidence of hypoglycaemia events (glucose <70 mg/dL [3.9 mmol/L] and ≥54 mg/dL [3.0 mmol/L], or glucose <54 mg/dL [3.0 mmol/L]), and change in safety laboratory parameters, electrocardiogram, and vital signs.
The estimand used for efficacy analyses was an “efficacy estimand”, representing the average treatment effect for the randomized population if the treatment was administered as intended, thus including data from all randomized participants who received at least one dose of study drug and excluding data after permanent discontinuation of study drug. All tests of treatment effects were conducted at a 2-sided alpha level of 0.05 without adjustment for multiple comparisons, and 2-sided 95% CIs were calculated.
Safety analyses were conducted by comparing safety of OFG with placebo and with dulaglutide irrespective of adherence to study drug. The safety analyses were conducted using the safety analysis set, which includes all randomized participants who received at least one dose of study drug. The results were presented in summary statistics, point estimates, and 95% confidence intervals along with p-values for treatment comparisons.

[3] = Phase 1 food effect study B, 16 mg daily dose reached by weekly escalation, healthy adults (Example 6); format: in vivo, human; settings: for AUC(0-t): read-out: AUC(0-24), geometric LS mean (geometric CV %); for Cmax: read-out: Cmax, geometric LS mean (geometric CV %)
[4] = human, in vivo, oral, 16 mg, STUDY B - 16 mg (with titration), Fasted
[5] = human, in vivo, oral, 16 mg, STUDY B - 16 mg (with titration), Fed

## Cc1cc(-n2nc3c(c2-n2ccn(-c4ccc5c(cnn5C)c4F)c2=O)[C@H](C)N(C(=O)c2cc4cc([C@H]5CCOC(C)(C)C5)ccc4n2[C@@]2(c4noc(=O)[nH]4)C[C@@H]2C)CC3)cc(C)c1F [OFG, 3-[(1S,2S)-1-[5-[(4S)-2,2-dimethyloxan-4-yl]-2-[(4S)-2-(4-fluoro-3,5-dimethylphenyl)-3-[3-(4-fluoro-1-methylindazol-5-yl)-2-oxoimidazol-1-yl]-4-methyl-6,7-dihydro-4H-pyrazolo[4,3-c]pyridine-5-carbonyl]indol-1-yl]-2-methylcyclopropyl]-4H-1,2,4-oxadiazol-5-one, 0.5 Ca hydrate]
[1]; STUDY A - 3 mg, Fasted
  Tmax, median (range): 8.0 (4.0-24.0) h
  AUC(0-inf): 0.362 µg·h/mL
  Cmax: 0.0134 µg/mL
  half-life: 29.5 h
[1]; STUDY A - 3 mg, Fed
  AUC(0-inf): 0.26 µg·h/mL
  Cmax: 0.0101 µg/mL
  half-life: 27.9 h
[1]; study A
  Tmax and T½ with or without food: similar
  treatment emergent adverse events (TEAEs) severity: mild
[1]; study A, single 3 mg dose
  AUC(0-∞) lower when administered with food: 24%
[1]; study A, single 3 mg dose, fed vs fasted
  Cmax lower in the fed state: 23%
[2]; across OFG dose groups
  percentage of patients who attained an HbA1c of 7% or less: 65.2% to 95.8
[2]; in vivo
  most common adverse events: gastrointestinal, mild to moderate in severity
  pulse rate changes from baseline: +3.0 to +6.1 bpm
  systolic or diastolic blood pressure compared with dulaglutide or placebo: no statistically significant differences
[2]; versus placebo
  fasting glucose: significant improvements versus placebo
[2]; week 26, OFG 3 mg
  mean changes from baseline in body weight: -3.7 kg
[2]; week 26, OFG 12 mg
  body weight ETD versus dulaglutide: -2.6 kg
  body weight ETD versus placebo: -4.3 kg
  mean changes from baseline in body weight: -6.5 kg
[2]; week 26, OFG 24 mg
  body weight ETD versus dulaglutide: -5.9 kg
  body weight ETD versus placebo: -7.6 kg
  mean changes from baseline in body weight: -9.7 kg
[2]; week 26, OFG 36 mg
  body weight ETD versus dulaglutide: -5.7 kg
  body weight ETD versus placebo: -7.4 kg
  mean changes from baseline in body weight: -9.5 kg
[2]; week 26, OFG 45 mg
  body weight ETD versus dulaglutide: -6.2 kg
  body weight ETD versus placebo: -7.9 kg
  mean changes from baseline in body weight: -10.1 kg
[2]; week 26, across OFG dose groups
  mean change in HbA1c from baseline: −0.77% to −1.67
[3]; STUDY B - 16 mg (with titration), Fasted
  Tmax, median (range): 8.0 (4.0-16.0) h
[3]; STUDY B - 16 mg (with titration), Fed
  Tmax, median (range): 8.0 (4.0-24.0) h
[3]; [4]
  AUC(0-t): 1.2 µg·h/mL
  Cmax: 0.0805 µg/mL
[3]; human, in vivo, oral, 16 mg, STUDY B - 16 mg (with titration), Fasted, read-out: T1/2, geometric mean (range) (converted)
  half-life: 26 h
[3]; [5]
  AUC(0-t): 1.05 µg·h/mL
  Cmax: 0.0675 µg/mL
[3]; study B
  TEAE decreased appetite: 69.7%
  TEAE nausea: 48.5%
  TEAE vomiting: 45.5%
  TEAEs occurrence over dosing: occurred most often with the starting dose and decreased with dose escalation
  Tmax and T½ with or without food: similar
  treatment emergent adverse events (TEAEs) severity: mild
[3]; study B, 16 mg daily dose
  AUC(0-24) lower when administered with food: 18%
[3]; study B, 16 mg daily dose, fed vs fasted
  Cmax lower in the fed state: 21%

## dulaglutide [reference compound]
[2]; dulaglutide 1.5 mg
  percentage of patients who attained an HbA1c of 7% or less: 64.1%
[2]; in vivo
  pulse rate changes from baseline: +2.3 bpm
[2]; week 26, dulaglutide
  mean changes from baseline in body weight: -3.9 kg
[2]; week 26, dulaglutide 1.5 mg
  mean change in HbA1c from baseline: −1.1%
